The target of data set [1] is T1, FadB' ((S)-3-hydroxyacyl-CoA dehydrogenase/enoyl-CoA hydratase, H16_A0461; FadB'Re) (Cupriavidus necator, UniProt Q0KEG0).
T1 construct: N-terminal His-tag (pCOLADuet-1::3HAD), expressed in E. coli BL21; monomer (87 kDa by gel filtration); N-terminal 3HCDH and C-terminal crotonase-like domain
T1 sequence (Q0KEG0 1-807): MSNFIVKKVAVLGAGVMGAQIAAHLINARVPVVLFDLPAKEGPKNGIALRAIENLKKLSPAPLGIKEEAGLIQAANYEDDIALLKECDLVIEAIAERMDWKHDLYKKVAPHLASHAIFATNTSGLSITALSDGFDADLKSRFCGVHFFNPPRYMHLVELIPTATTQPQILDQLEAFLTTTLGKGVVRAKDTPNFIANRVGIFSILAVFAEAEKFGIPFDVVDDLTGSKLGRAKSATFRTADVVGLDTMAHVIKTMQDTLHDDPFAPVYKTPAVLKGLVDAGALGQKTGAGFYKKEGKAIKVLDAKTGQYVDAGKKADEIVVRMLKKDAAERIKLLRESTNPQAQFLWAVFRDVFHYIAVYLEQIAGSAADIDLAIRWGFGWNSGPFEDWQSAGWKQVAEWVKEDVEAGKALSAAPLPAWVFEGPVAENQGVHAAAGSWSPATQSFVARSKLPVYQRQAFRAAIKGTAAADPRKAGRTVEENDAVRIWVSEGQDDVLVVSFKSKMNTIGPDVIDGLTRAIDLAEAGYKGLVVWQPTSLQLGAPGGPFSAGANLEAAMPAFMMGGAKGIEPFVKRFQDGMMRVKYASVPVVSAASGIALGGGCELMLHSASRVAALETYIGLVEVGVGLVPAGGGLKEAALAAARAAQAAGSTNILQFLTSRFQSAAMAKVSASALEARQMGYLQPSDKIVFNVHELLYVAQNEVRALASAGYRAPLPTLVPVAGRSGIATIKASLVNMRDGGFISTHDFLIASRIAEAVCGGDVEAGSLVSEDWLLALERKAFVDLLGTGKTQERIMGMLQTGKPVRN
In words: spectrophotometric NADH oxidation at […] nm. The note with it: read-out: % inhibition at 0.1 mM (3-hydroxyacyl-CoA dehydrogenase activity). Format: biochemical.

Data set [2] has as its target T1, FadB' ((S)-3-hydroxyacyl-CoA dehydrogenase/enoyl-CoA hydratase, H16_A0461; FadB'Re). The experiment in a line: coupled assay, acetoacetyl-CoA-Mg2+ complex formation at […] nm. Format: biochemical. The note with it: read-out: % inhibition at 0.1 mM (enoyl-CoA hydratase activity).
Substrate in data set [3]: CC(=O)CC(=O)SCCNC(=O)CCNC(=O)[C@H](O)C(C)(C)COP(=O)(O)OP(=O)(O)OC[C@H]1O[C@@H](n2cnc3c(N)ncnc32)[C@H](O)[C@@H]1OP(=O)(O)O
In words: purified protein. Format: biochemical, Cupriavidus necator. To be noted: 3-hydroxyacyl-CoA dehydrogenase activity (reduction direction), 0.2 mM NADH, 100 mM Tris-HCl pH 7, 30 °C, no acetyl-CoA added.

Broadly, the inhibition is the share of the control response that was lost under treatment. As to `CC(C)(COP(=O)(O)OP(=O)(O)OC[C@H]1O[C@@H](n2cnc3c(N)ncnc32)[C@H](O)[C@@H]1OP(=O)(O)O)[C@@H](O)C(=O)NCCC(=O)NCCS` [CoA], the values for the inhibition at 100 µM in data set [1] and in data set [2] were 20% and 30%, respectively.

`CCC(=O)SCCNC(=O)CCNC(=O)[C@H](O)C(C)(C)COP(=O)(O)OP(=O)(O)OC[C@H]1O[C@@H](n2cnc3c(N)ncnc32)[C@H](O)[C@@H]1OP(=O)(O)O` [propionyl-CoA]: the inhibition at 100 µM in data set [2] was about 60%.

As for `CC(=O)SCCNC(=O)CCNC(=O)[C@H](O)C(C)(C)COP(=O)(O)OP(=O)(O)OC[C@H]1O[C@@H](n2cnc3c(N)ncnc32)[C@H](O)[C@@H]1OP(=O)(O)O` [acetyl-CoA], the inhibition at 100 µM was about 50% in data set [1] and 70% in data set [2].

B1: FadB' ((S)-3-hydroxyacyl-CoA dehydrogenase/enoyl-CoA hydratase, H16_A0461; FadB'Re) (Cupriavidus necator H16) (protein)
chain: T1 sequence (Q0KEG0 1-807)
notes: N-terminal His-tag (pCOLADuet-1::3HAD), expressed in E. coli BL21; monomer (87 kDa by gel filtration); N-terminal 3HCDH and C-terminal crotonase-like domain
As usually defined, the Km is the substrate concentration at which the rate is half of its maximum. Turning to B1, the Km in data set [3] is 48 µM.

These data come from paper PMC4230905, “(S)-3-hydroxyacyl-CoA dehydrogenase/enoyl-CoA hydratase (FadB’) from fatty acid degradation operon of Ralstonia eutropha H16” (AMB Express, 2014).
